Data on one compound can be found in US4902716A (priority 1984, dated 1990).

One data set relates to cells. The data set is described as follows: Cytotoxicity (zone diameter in the antiviral assay). The class given is cell-based. Conditions: Day 5. The method, then: The following assay method was utilized to illustrate the antiviral effectiveness of the compounds of formulae III and IV: […]
(1) Remove 75 cm^2 culture flasks from incubator (these were plated the previous week).
(3) Wash with 10 ml. PBSA or Puck's Saline.
(5) Wash a second time with 10 mL PBSA or Puck's Saline.
(7) Add 2 ml. trypsin/EDTA. Incubate until cells detach (10-20 min).
(8) Once detached, shake vigorously and immediately add 8 ml. medium and shake again.
(9) Count cells. (To 0.5 ml. cell suspension add 0.1 ml. trypan blue. Wait 5-10 minutes. Count 4 corner squares and middle square of 5×5 array in hemocytometer. Blue cells are dead. Total count per 10 ml. in culture flask=number of live cells×6×10^5).
(10) Maintain cell line by adding 3×10^6 cells to another 75 cm^2 culture flask. Bring to 30 ml. with fresh medium.
(11) For assay, add 1×10^6 cells to each well (6 wells per culture dish). Bring each well to 2 ml. with fresh medium.
(12) Incubate overnight at 37° C.
(2) Add 0.5 of medium containing 200 pfu HSV-I.
(3) Incubate 102 hr with a small amount of shaking.
(4) Add 2 ml. MC-4000 to each well.
(5) Place disks on surface and wash through (1 mg/disc, 0.5 mg/disc, 0.25 mg/disc, etc. for crude extracts).
(6) Incubate 48 hr. (making sure dishes remain level).
(1) Add 2 ml. neutral red medium.
(1) Read wells, e.g. 26 (++) where 26 indicates zone of cytotoxicity as the diameter in mm (12.5 mm to 36 mm) and (++) indicates the inhibition of plaque formation: complete inhibition (+++); a few plaques around the outside of well (++); definite inhibition (+); questionable inhibition (+/-); no inhibition (-); and no conclusion due to complete cytotoxicity.
The following antiviral inhibiting activity results were obtained utilizing the compounds of Formula III and IV at Day 5: […]

Another data set deals with VSV. Format: cell-based, vesicular stomatitis. The following applies: Day 5, inhibition of plaque formation.

Like-named read-outs stand apart in the source and are kept apart here.

For `C=C1C(=O)C=CC(C)(C)[C@@]12C[C@@H](Br)[C@](C)(Cl)C[C@@H]2O` [IV], the Cytotoxicity with cells (100 micrograms) came to 0 mm; in the data set on cells (200 micrograms), 0 mm; with cells (400 micrograms), 12 mm. Also, the VSV activity result with VSV (100 micrograms) was “+”; in the data set on VSV (200 micrograms), “++”; with VSV (400 micrograms), “++”.
